Results: patent US6809175B1, “Cadherin derived growth factor and its use” (Prof. Dr. Wolf-Georg Forssmann, priority 1997, dated 2004)

Columns and labels:
[1] = test system: primary osteoblasts; test: Proliferation assay on primary osteoblasts ([3H]thymidine or BrdU incorporation); type: cell-based; conditions: primary osteoblasts from fetal rat calvarias; serum-free medium with 1 mg/ml BSA; established for both native and synthetic peptide
Protocol: The isolation of OB-CDGF was based on its biological activity in a proliferation assay of the primary osteoblasts. Thus, aliquots of each of the individual chromatographic stages described under Example 1 were freeze-dried and then subjected to a biological assay. The fractions which gave a positive signal were respectively subjected to further purification.
The assay measures the proliferation of the cells after having been kept in serum-free medium with 1 mg/ml bovine serum albumin, adding the samples and determining the incorporation of [^3H]thymidine or bromode-oxyuranosine (Brdu) after a further 48 hours. As a positive control, factors promoting bone growth, such as IGF or angiotensin, or fetal calf serum (FCS) are employed.
The experiments were performed by analogy with Pfeilschifter et al., Endocrinology 126, 703, 1990.
The recovery of primary osteoblasts was effected by sequential digestive separation from fetal rat calvarias using collagenase to obtain 5 cell fractions. The pooled cell fractions 3-5 were cultured in vitro. […]
At the end of the incubation time, the cell cultures were washed three times with 0.9% saline, and then 100 μl of liquid scintillator (OptiPhase Super-mix®, Wallac) was added to each well. Subsequently, the radioactivity incorporated in the DNA was measured in a liquid scintillation counter (1450 MicroBeta®, Wallac) in cpm. […]

[2] = test system: neonatal rat osteoblast monolayers; test: Binding assay of 125I-labeled OB-CDGF to osteoblasts; conditions: confluent layers and extracellular matrix of neonatal rat osteoblasts; 2 hours at 4° C.; FIG. 5
Protocol: The binding of the osteoproliferative peptides to neonatal rat osteoblast monolayers was effected with the use of ^125j-labeled peptides. Chloramine T was used for iodination. The specific activity of the peptides was 100,000 cpm/ng. The binding studies were performed on confluent layers and the extracellular matrix of a first passage of neonatal rat osteoblasts. The cells were incubated for 24 hours in serum-containing medium and then washed four times with PBS and incubated for 2 hoursat 4° C. in 250 μl of the assay buffer (20 mM HEPES, 0.1 mg/ml BSA, pH 7.0) with 80,000 cpm of the iodine-labeled peptide in the presence of different concentrations of the unlabeled peptide. The incubation buffer was then removed, and the cells washed four times with cold PBS and solubilized with 1 M NaOH. The cell-bound activity was determined using a gamma counter. The corresponding experimental results are represented in FIG. 5.

[3] = test system: primary osteoblasts; test: Intracellular calcium release in primary osteoblasts (Fura-2); type: cell-based, rat; conditions: single primary osteoblasts, Fura-2, fluorescence microscope; FIG. 6
Protocol: The intracellular signal chain for calcium^2+is measured on individual osteoblast cells. The intracellular Ca^2+activity of primary osteoblasts is measured with the Ca^2+-sensitive dye Fura-2 (Calbiochem, Bad Soden, Germany). The primary osteoblasts are cultured for one to three days on glass supports (diameter 30 mm) attached to a perfusion chamber of an inverted microscope (Axiomat IDC-UV, Zeiss, Gottingen, Germany). […]
The incubation is followed by an equilibration period of 10 to 15 min in which the cells are washed with KHB solution at 37° C. with a perfusion rate of about 5 ml/min. The Fura-2-charged primary osteoblasts are measured at 340, 360 and 380 nm with a high speed filter wheel (rotational speed 10 Hertz), a single-photon counter tube (Hamamatsu, Herrsching, Germany) and a xenon quartz lamp (XBO 75 W/OFR, Zeiss, Germany) as a light/impulse source. The Fura-2 emission is measured through a long-wave filter at 510 nm with an Ultrafluar 125 ×glycerol immersion lens. […] The ratio of photon emissions upon excitation at 340 and 380 nm is evaluated. […] The raw data are calculated, and 10 neighboring data points are averaged to obtain a time resolution of 1 Hz. The fluorescence at 360 nm is used to test calcium activity. All samples are dissolved in a phosphate buffer prior to the experiment and measured for at least 1 to 2 minutes. […]

[4] = test system: MAP kinase; test: Western blot detection of intracellular MAP kinase in primary osteoblasts; type: cell-based, rat; conditions: primary osteoblasts incubated for different periods of time; FIG. 7
Protocol: As already shown under Example 5, intracellular calcium release can be induced on primary osteoblasts by incubation with CDGF. To further characterize this physiological response, the further intracellular signal pathway (downstream from calcium) was examined. One possible signal transduction cascade is the activation of MAP kinase, an enzyme which plays an essential role in the signal transduction from the cytoplasm into the nucleus. Signal transmission involves phosphorylation of the enzyme which can be detected with a specific antibody. Thus, this protein can be detected in a Western blot, which is a measure of both the phosphorylation and the expression due to the stimulus. Primary osteoblasts were incubated with cadherin or controls (FCS) for different periods of time. Expression of the enzyme (MAP kinase) in the cell was detected in the Western blot by the addition of the antibody. The results are represented in FIG. 7. […] The longer the stimulation with OB-CDGF, the more clearly could the band be discerned. […] Therefrom, it can be concluded that CDGF acts through calcium in a receptor-mediated way, and the further signal processing proceeds via MAP kinase.

[5] = test system: primary cultures of neurons from spinal ganglia of chicken embryos; test: Survival-promoting effect on primary nerve cell cultures (cellular LDH level); type: cell-based; conditions: neurons from spinal ganglia of chicken embryos (E10); cellular LDH level after 48 hours
Protocol: Primary Nerve Cell Cultures From Spinal Ganglia of Chicken Embryos (Embryo-Onal Development E10)
The preparation and cultivation is performed as described by Borasio G. D., John J., Wittinghofer A., Barde Y.-A., Sendtner M., Heumann R. (1989), Neuron 2, 1087-1096. To determine survival-promoting effects of active substances, determination of the cellular LDH level after an incubation time of 48 hours is employed. To this end, the culture medium is removed by tapping out the plate. Only the vital cells remain adhered to the bottom of the plate and can then be determined. To determine the LDH level, the LDH cytotoxicity test kit of Boehringer Mannheim (BM) is employed.
The cultures were used in duplicate in 96-well microtitration plates. On each plate, an NGF calibration curve is established in parallel, and the biological activity of the substances is expressed in pg/ml of NGF equivalents. As a low-molecular weight reference, the starurosporin derivative K252a is used in a parallel test in a concentration of 300 nmol/l.

| Sequence | growth-promoting effect on primary osteoblasts (proliferation) [1] | displacement of labeled OB-CDGF by unlabeled OB-CDGF (specific binding) [2] | intracellular calcium concentration [3] | expression of intracellular MAP kinase (Western blot band) [4] | survival-promoting effect on primary neurons [5] |
| --- | --- | --- | --- | --- | --- |
| ERRGHLRPSFHGHHEKGKEGQVLQRS (listed as Homo sapiens) [OB-CDGF, peptide purified from human hemofiltrate and resynthesized; human cadherin-11 precursor propeptide, amino acids 26-51] | dose-dependent growth-promoting effect | the level of specifically bound labeled OB-CDGF is reduced | intracellular calcium concentration increases | leads to expression of intracellular MAP kinase |  |
| QPQPQQTLATEPRENVIHLPGQRSHFQRV (listed as Homo sapiens) [BR-CDGF, peptide corresponding to the CDGF region of cadherin-12 (BR-cadherin; N-cadherin-2)] |  |  |  |  | survival-promoting effect on these primary neurons in a concentration-dependent way |
| TLSTPLSKRTSGFPAKKRALELSGNSKNELNRS (listed as Homo sapiens) [CAD6-CDGF, peptide corresponding to the CDGF region of cadherin-6] |  |  |  |  | survival-promoting effect on these primary neurons in a concentration-dependent way |
